Measured values taken from ChEMBL document CHEMBL4732064, “Structure-activity relationship studies of phenothiazine derivatives as a new class of ferroptosis inhibitors together with the therapeutic effect in an ischemic stroke model” (Eur J Med Chem, 2021).
Active and inactive are the calls of the source. No cut-off for these calls is given here.

Key:
THP-1 = assay: Protection against nigericin-induced pyroptosis in human THP-1 cells assessed as cell viability at 10 uM; type: functional, cell-based
[1] = molecular target: Bifunctional arginine demethylase and lysyl-hydroxylase JMJD6 (Homo sapiens, UniProt Q6NYC1); assay: Inhibition of JMJD6 (unknown origin)
HT-1080 [2] = assay: Inhibition of ERK expression in erastin-induced human HT-1080 cell ferroptosis model at 0.01 to 1 uM after 10 hrs by Western blot analysis; type: functional; settings: dose 0.01-1 µM
Rattus norvegicus [3] = assay: Protective activity in Sprague-Dawley rat model of middle cerebral artery occlusion-induced ischemia-reperfusion injury assessed as restoration of walking ability at 5 mg/kg, iv measured after 24 hrs of post reperfusion […]; type: functional, organism-based
HT-29 = assay: Protection against TNFalpha/Smac-mimetic/Z-VAD-FMK-induced necroptosis in human HT-29 cells assessed as cell viability at 10 uM; type: functional, cell-based
[4] = molecular target: T1, Alpha-1A adrenergic receptor (Homo sapiens) (UniProt P35348); assay: Antagonist activity at ADRA1A (unknown origin) by FLIPR assay
T1 sequence (whole entry): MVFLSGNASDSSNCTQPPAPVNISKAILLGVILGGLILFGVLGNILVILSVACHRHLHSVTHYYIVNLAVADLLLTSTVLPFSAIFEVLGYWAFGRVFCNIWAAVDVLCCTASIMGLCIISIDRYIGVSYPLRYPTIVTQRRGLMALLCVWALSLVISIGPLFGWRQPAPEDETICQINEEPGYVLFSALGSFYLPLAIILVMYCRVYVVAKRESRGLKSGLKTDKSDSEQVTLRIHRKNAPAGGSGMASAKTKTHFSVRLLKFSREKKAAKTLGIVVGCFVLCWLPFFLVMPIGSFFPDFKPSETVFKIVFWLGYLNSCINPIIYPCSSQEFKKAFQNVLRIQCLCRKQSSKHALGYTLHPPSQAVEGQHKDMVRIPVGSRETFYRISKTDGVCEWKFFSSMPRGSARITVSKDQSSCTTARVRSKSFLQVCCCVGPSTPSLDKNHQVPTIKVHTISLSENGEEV

[5] = Antioxidant activity assessed as DPPH radical scavenging activity at 0.05 mM incubated for 10 mins; type: functional
[6] = molecular target: D(2) dopamine receptor (Homo sapiens) (UniProt P14416); assay: Antagonist activity at DRD2L (unknown origin) by FLIPR assay
HT-1080 [7] = assay: Antioxidant activity in erastin-induced human HT-1080 cell ferroptosis model assessed as decrease in cytosolic ROS accumulation at 0.01 to 1 uM incubated for 8 to 24 hrs by DCFH-DA staining based assay; type: functional; settings: dose 0.01-1 µM, time 8-24 hrs
Rattus norvegicus [8] = assay: Protective activity in Sprague-Dawley rat model of middle cerebral artery occlusion-induced ischemia-reperfusion injury assessed as reduction in neurological score at 5 mg/kg, iv measured after 24 hrs of post reperfusion […]; type: functional, organism-based
[9] = molecular target: T2, Histone acetyltransferase type B catalytic subunit (Homo sapiens, UniProt O14929); assay: Inhibition of HAT1 (unknown origin)
T2 sequence (O14929 whole entry): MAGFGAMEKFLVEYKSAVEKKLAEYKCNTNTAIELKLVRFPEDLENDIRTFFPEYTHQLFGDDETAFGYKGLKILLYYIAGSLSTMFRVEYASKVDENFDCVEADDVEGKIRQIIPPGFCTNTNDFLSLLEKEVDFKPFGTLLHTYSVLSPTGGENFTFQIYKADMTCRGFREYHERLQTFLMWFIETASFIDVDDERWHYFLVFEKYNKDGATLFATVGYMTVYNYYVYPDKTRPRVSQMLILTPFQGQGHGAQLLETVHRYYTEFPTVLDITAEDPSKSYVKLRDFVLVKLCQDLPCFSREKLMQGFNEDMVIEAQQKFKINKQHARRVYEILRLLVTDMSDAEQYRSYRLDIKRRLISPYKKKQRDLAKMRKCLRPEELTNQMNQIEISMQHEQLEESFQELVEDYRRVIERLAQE

Sequence of D(2) dopamine receptor (Homo sapiens) (P14416 whole entry): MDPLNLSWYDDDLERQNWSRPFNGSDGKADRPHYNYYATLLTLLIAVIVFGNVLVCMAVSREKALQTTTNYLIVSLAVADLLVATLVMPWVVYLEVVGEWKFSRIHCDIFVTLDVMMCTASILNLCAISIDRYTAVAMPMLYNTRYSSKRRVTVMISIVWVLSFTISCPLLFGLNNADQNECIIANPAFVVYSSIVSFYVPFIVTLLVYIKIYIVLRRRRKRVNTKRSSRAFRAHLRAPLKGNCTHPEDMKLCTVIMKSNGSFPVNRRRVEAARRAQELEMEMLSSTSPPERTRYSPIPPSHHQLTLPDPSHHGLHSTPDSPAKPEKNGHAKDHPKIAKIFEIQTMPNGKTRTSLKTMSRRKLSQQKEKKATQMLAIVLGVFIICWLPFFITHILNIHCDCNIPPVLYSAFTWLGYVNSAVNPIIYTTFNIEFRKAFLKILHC

CC(c1ccc(N2CCN(C)CC2)cc1)c1ccc2c(c1)Nc1ccccc1S2 (stereo unspecified)
Activity (THP-1): inactive | IC50 [1]: > 10 µM | inhibition (HT-1080 [2]): inactive | Activity (Rattus norvegicus [3]): Active | Activity (HT-29): inactive | Activity [4]: inactive | Activity [5]: Active | Activity [6]: inactive | Activity (HT-1080 [7]): Active | Activity (Rattus norvegicus [8]): Active | IC50 [9]: > 10 µM
